Assay results published in ChEMBL document CHEMBL1201862, “PubChem BioAssay data set” (2004).
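1) Cells in 96-well plates. 2) Compound, 48 h, 5 concentrations. 3) Linear interpolation between surrounding doses. 4) Unreached endpoint = highest concentration. GI50 is the concentration that inhibits growth by half.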 Calls of active or inactive are those of the source. No stated cut-off is given here; in the data, active = GI50 up to about 1.1 µM and inactive = higher.

Key:
Assay in all cases: inhibition of tumour cell growth, NCI panel, 48 h
NCI-H226 = tested on: NCI-H226
A549 = tested on: A549
NCI-H522 = tested on: NCI-H522
U-251 = tested on: U-251
MOLT-4 = tested on: MOLT-4
CCRF-CEM = tested on: CCRF-CEM
RXF 393 = tested on: RXF 393
SK-MEL-2 = tested on: SK-MEL-2
SF-268 = tested on: SF-268
SF-539 = tested on: SF-539
M14 = tested on: M14
OVCAR-5 = tested on: OVCAR-5
OVCAR-4 = tested on: OVCAR-4
HCC 2998 = tested on: HCC 2998
HL-60 = tested on: HL-60
MDA-MB-435 = tested on: MDA-MB-435
IGROV-1 = tested on: IGROV-1
K562 = tested on: K562
ACHN = tested on: ACHN
EKVX = tested on: EKVX
RPMI-8226 = tested on: RPMI-8226
HOP-62 = tested on: HOP-62
OVCAR-3 = tested on: OVCAR-3
SK-OV-3 = tested on: SK-OV-3
SN12C = tested on: SN12C
Malme-3M = tested on: Malme-3M
Hs-578T = tested on: Hs-578T
SNB-75 = tested on: SNB-75
HCT-116 = tested on: HCT-116
TK-10 = tested on: TK-10
MDA-MB-231 = tested on: MDA-MB-231
CAKI-1 = tested on: CAKI-1
NCI/ADR-RES = tested on: NCI/ADR-RES
KM12 = tested on: KM12
OVCAR-8 = tested on: OVCAR-8
MCF7 = tested on: MCF7
SK-MEL-5 = tested on: SK-MEL-5
HCT-15 = tested on: HCT-15
T47D = tested on: T47D
NCI-H23 = tested on: NCI-H23
SK-MEL-28 = tested on: SK-MEL-28
SR = tested on: SR
COLO 205 = tested on: COLO 205
UACC-62 = tested on: UACC-62
UO-31 = tested on: UO-31
NCI-H460 = tested on: NCI-H460
SNB-19 = tested on: SNB-19
LOX IMVI = tested on: LOX IMVI
SW-620 = tested on: SW-620
HT-29 = tested on: HT-29
SF-295 = tested on: SF-295
786-0 = tested on: 786-0
A498 = tested on: A498
PC-3 = tested on: PC-3
MDA-N = tested on: MDA-N
DU-145 = tested on: DU-145
UACC-257 = tested on: UACC-257
HOP-92 = tested on: HOP-92
BT-549 = tested on: BT-549

Measured: GI50

OC1(CCc2ccccc2)COC(C(F)(F)F)(C(F)(F)F)C1 (configuration not stated)
inactive: NCI-H226 > 100 µM | A549 > 100 µM | NCI-H522 > 100 µM | U-251 > 100 µM | MOLT-4 > 100 µM | CCRF-CEM > 100 µM | RXF 393 > 100 µM | SK-MEL-2 > 100 µM | SF-268 > 100 µM | SF-539 > 100 µM | M14 > 100 µM | OVCAR-5 > 100 µM | OVCAR-4 > 100 µM | HCC 2998 > 100 µM | HL-60 > 100 µM | MDA-MB-435 > 100 µM | IGROV-1 > 100 µM | K562 > 100 µM | ACHN > 100 µM | EKVX > 100 µM | RPMI-8226 97.3 µM | HOP-62 > 100 µM | OVCAR-3 > 100 µM | SK-OV-3 > 100 µM | SN12C > 100 µM | Malme-3M > 100 µM | Hs-578T > 100 µM | SNB-75 > 100 µM | HCT-116 > 100 µM | TK-10 > 100 µM | MDA-MB-231 > 100 µM | CAKI-1 > 100 µM | NCI/ADR-RES > 100 µM | KM12 > 100 µM | OVCAR-8 > 100 µM | MCF7 > 100 µM | SK-MEL-5 > 100 µM | T47D > 100 µM | NCI-H23 > 100 µM | SK-MEL-28 > 100 µM | SR > 100 µM | COLO 205 > 100 µM | UACC-62 > 100 µM | UO-31 > 100 µM | NCI-H460 > 100 µM | SNB-19 > 100 µM | LOX IMVI > 100 µM | SW-620 > 100 µM | HT-29 > 100 µM | SF-295 > 100 µM | 786-0 > 100 µM | A498 > 100 µM | PC-3 > 100 µM | MDA-N > 100 µM | DU-145 > 100 µM
> 100 µM: HCT-15

COC(=O)CC1(O)C(/C=C/c2ccccc2)C(C(=O)OC)C(=O)C(C(=O)OC)C1C(=O)OC (configuration not stated)
> 100 µM: HCT-15
inactive: NCI-H226 > 100 µM | A549 > 100 µM | NCI-H522 49.5 µM | U-251 79.3 µM | MOLT-4 > 100 µM | CCRF-CEM 48.3 µM | RXF 393 > 100 µM | SK-MEL-2 > 100 µM | SF-268 > 100 µM | SF-539 > 100 µM | M14 > 100 µM | OVCAR-5 > 100 µM | OVCAR-4 > 100 µM | HCC 2998 > 100 µM | UACC-257 > 100 µM | HL-60 > 100 µM | MDA-MB-435 > 100 µM | IGROV-1 > 100 µM | K562 > 100 µM | ACHN > 100 µM | EKVX > 100 µM | RPMI-8226 > 100 µM | HOP-62 > 100 µM | OVCAR-3 > 100 µM | SK-OV-3 > 100 µM | SN12C > 100 µM | Malme-3M > 100 µM | Hs-578T > 100 µM | HCT-116 54 µM | TK-10 > 100 µM | MDA-MB-231 > 100 µM | CAKI-1 > 100 µM | NCI/ADR-RES 85.3 µM | KM12 > 100 µM | OVCAR-8 > 100 µM | MCF7 96.8 µM | SK-MEL-5 > 100 µM | NCI-H23 > 100 µM | SK-MEL-28 > 100 µM | SR > 100 µM | COLO 205 > 100 µM | HOP-92 > 100 µM | UACC-62 81.1 µM | UO-31 > 100 µM | NCI-H460 > 100 µM | SNB-19 45.6 µM | LOX IMVI 26.7 µM | SW-620 > 100 µM | HT-29 > 100 µM | SF-295 18.5 µM | 786-0 > 100 µM | A498 > 100 µM | PC-3 78.7 µM | MDA-N 44 µM | DU-145 > 100 µM

COC(=O)C1C(O)CCC2CN3CCc4c([nH]c5ccccc45)C3CC21 (configuration not stated)
inactive: A549 > 100 µM | U-251 > 100 µM | BT-549 > 100 µM | SF-268 > 100 µM | OVCAR-5 > 100 µM | HCC 2998 59.4 µM | UACC-257 > 100 µM | MDA-MB-435 > 100 µM | IGROV-1 > 100 µM | EKVX > 100 µM | OVCAR-3 > 100 µM | SK-OV-3 > 100 µM | SNB-75 > 100 µM | T47D > 100 µM | SK-MEL-28 76 µM | UO-31 > 100 µM | NCI-H460 > 100 µM | SW-620 > 100 µM | 786-0 > 100 µM | PC-3 > 100 µM
> 100 µM: HCT-15

O=C1Oc2ccccc2C(=O)/C1=C\NC(=S)c1ccncc1
69.3 µM: HCT-15
inactive: NCI-H226 > 100 µM | A549 > 100 µM | U-251 > 100 µM | MOLT-4 95.1 µM | BT-549 31.6 µM | SK-MEL-2 42.3 µM | SF-539 > 100 µM | M14 > 100 µM | OVCAR-5 > 100 µM | OVCAR-4 > 100 µM | HCC 2998 > 100 µM | UACC-257 > 100 µM | HL-60 3.35 µM | MDA-MB-435 98.4 µM | IGROV-1 67.1 µM | ACHN 53.3 µM | EKVX > 100 µM | HOP-62 84.1 µM | OVCAR-3 71.6 µM | SK-OV-3 > 100 µM | SN12C > 100 µM | SNB-75 99.3 µM | HCT-116 > 100 µM | TK-10 > 100 µM | MDA-MB-231 > 100 µM | CAKI-1 51.3 µM | NCI/ADR-RES > 100 µM | KM12 > 100 µM | OVCAR-8 99.3 µM | MCF7 > 100 µM | SK-MEL-5 > 100 µM | T47D > 100 µM | NCI-H23 > 100 µM | SK-MEL-28 45.9 µM | COLO 205 > 100 µM | HOP-92 > 100 µM | UACC-62 > 100 µM | UO-31 45.7 µM | NCI-H460 57.7 µM | SNB-19 96.8 µM | LOX IMVI > 100 µM | SW-620 11 µM | HT-29 > 100 µM | SF-295 > 100 µM | 786-0 > 100 µM | PC-3 94.4 µM | MDA-N > 100 µM | DU-145 > 100 µM
